From patent US7776854B2, “Benzazole derivatives for the treatment of scleroderma” (Merck Serono SA, priority 2001, dated 2010)

Assays:
[1] = tested on: bleomycin-induced lung fibrosis; assay: Determination of bleomycin-induced body weight loss; type: in vivo; conditions: C57BL/6 mice
Description: The objective of the present Assay is to determine the loss of body weight of mice which is usually triggered by bleomycin-induced lung fibrosis.
(§1) Female 10- to 12-week-old C57BL/6 wild-type mice were intratracheally instilled with bleomycin (3.75 U/kg) dissolved in 10 μl saline to induce the fibrosis in the lungs. The treatment with a test compound started on day 0 and was continued daily—from day 0 (1 hour before the bleomycin instillation) to day 17. The test compound was administered orally at different dosages. Control mice were intratracheally instilled with saline on day 0. The body weight loss was recorded on a daily basis and the results of the determination are graphically represented in FIG. 1.

[2] = tested on: bleomycin-induced lung inflammation; assay: Determination of bleomycin-induced pulmonary oedema (lung wet/dry weight difference); type: in vivo, mice
Description: as §1
Lung fibrotic changes following instillation of bleomycin result from the infiltration of inflammatory cells like macrophages, lymphocytes and neutrophils into the lungs a well as an increase in pro-inflammatory cytokines such as TNFα. The pulmonary oedema is analyzed to determine whether a test compound affects the bleomycin-induced lung inflammation. What is determined is the difference wet/dry of the examined lungs, where high differences indicate a high degree of pulmonary oedema.
Mice were treated as described in Example 2. The test compound was compound (A) (i.e. 1,3-benzothiazol-2-yl(2-{[4-(morpholin-4-ylmethyl)benzyl]-oxy}pyrimidin-4-yl)aceto-nitrile). […] The lung dry and wet weight differences were calculated and graphically reported in FIG. 2. which illustrates the outcome of the assay for the test compound (A).

[3] = tested on: bleomycin-induced lung fibrosis; assay: Determination of bleomycin-induced pulmonary fibrosis (histological scoring); type: in vivo, mice
Description: as §1
Injection of bleomycin in mice induces focal fibrotic lesions with thickened intra-alveolar septa, collapse of alveolar septa as well as massive infiltration of lymphocytes into the lung interstitium. Such focal fibrotic lesions are histologically determined on day 17 after bleomycin administration.
Mice were treated as described in Example 2. […] Morphological evaluation of bleomycin-induced lung inflammation and fibrosis was performed using a semiquantitative scoring method consisting in a visual evaluation of histological section photos in which the surface of the fibrotic part of the lung is evaluated compared to the total surface. […]

[4] = tested on: bleomycin-induced lung fibrosis; assay: Determination of bleomycin-induced lung collagen content (hydroxyproline); type: in vivo, mice; conditions: 7 mg/kg orally, day 17, p=0.009
Description: as §1
The objective of the present assay is to determine the reduction in lung fibrosis by specifically measuring the hydroxyproline content in the lungs of bleomycin-treated mice. Hydroxyproline is an amino acid component necessary for the build-up of collagen. The quantification of hydroxyproline in the lung after collagen hydrolysis is therefore seen as a suitable indicator for lung collagen content.
Mice were treated as described in Example 2. At day 17 of instillation, the animals were euthanized, and both lungs were removed. Total lung collagen was determined by analysis of hydroxyproline. Briefly, lungs were homogenized in Tris-HCl, pH 7.6, with a Tissue Tearor followed by incubation in Amberlite overnight at 115° C. […] Samples were cooled for 10 min and read at 560 nm on spectrophotometer. […]

N#CC(c1ccnc(OCc2ccc(CN3CCOCC3)cc2)n1)c1nc2ccccc2s1 (stereo not shown) [test compound (A), 1,3-benzothiazol-2-yl(2-{[4-(morpholin-4-ylmethyl)benzyl]-oxy}pyrimidin-4-yl)acetonitrile]
reduction of the loss of body weight induced by bleomycin ([1]; 2 mg/kg orally daily, day 17): about 30%
body weight course ([1]; bleomycin instilled, oral daily treatment, day 5 to day 17, versus saline-treated mice): stabilization of their body weight
pulmonary oedema (lung wet/dry weight difference) compared with saline-treated mice ([2]; 2 mg/kg orally, day 17, p=0.016): significant reduction
pulmonary oedema (lung wet/dry weight difference) compared with saline-treated mice ([2]; 7 mg/kg orally, day 17, p=0.009): significant reduction
bleomycin-induced lung fibrosis, histological scoring of fibrotic lesions compared with saline-treated mice ([3]; 7 mg/kg orally, day 17, p=0.016): significantly reduced
bleomycin-induced lung fibrosis, histological scoring of fibrotic lesions compared with saline-treated mice ([3]; 20 mg/kg orally, day 17, p=0.009): significantly reduced
lung hydroxyproline content compared with saline-treated mice [4]: significantly lower
